Legend:
Format in all cases: cell-based
M. catarrhalis = test: Broth microdilution MIC (NCCLS), M. catarrhalis; conditions: Moraxella catarrhalis; some strains of M. catarrhalis; read-out: MIC range
Protocol: (§1) Representative bis-quinazolines were tested for antibacterial activity using the […] microdilution method to determine their minimum inhibitory concentrations (MICs). All compounds were tested using standard methods in accordance with NCCLS guidelines (National Committee for Clinical Laboratory Standards. 2003. Methods for dilution antimicrobial susceptibility testing for bacteria that grow aerobically. Approved Standard M-7 A-6, NCCLS, Wayne, Pa.). The bacterial strains used in the susceptibility tests were obtained from the American Type Culture Collection (ATCC) and included resistant phenotypes such as oxacillin-resistant S. aureus (ORSA) and vancomycin-resistant enterococci (VRE). The minimum bactericidal concentrations (MBCs) were determined for selected organisms. The effect of protein binding on the antibacterial activity of representative bis-quinazolines were determined by conducting MIC tests in the presence of human serum.

[1] = test system: efflux mutants of E. coli; test: Broth microdilution MIC (NCCLS), E. coli efflux mutants; conditions: Escherichia coli, read-out: MICs
Protocol: as §1

H. influenzae = test: Broth microdilution MIC (NCCLS), H. influenzae; conditions: Haemophilus influenzae; some strains of H. influenzae
Protocol: as §1

[2] = test system: S. aureus, E. faecalis, S. pyogenes and S. pneumoniae; test: Broth microdilution MIC (NCCLS), gram-positive strains; conditions: range against some strains of S. aureus, E. faecalis, S. pyogenes and S. pneumoniae; read-out: MIC
Summary of the method: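 MICs by broth microdilution per NCCLS M-7 A-6 against ATCC strains, including ORSA and VRE; MBCs determined for selected organisms. Serum effect assessed by repeating MIC tests with human serum present.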

[3] = test system: efflux mutants of P. aeruginosa; test: Broth microdilution MIC (NCCLS), P. aeruginosa efflux mutants; conditions: Pseudomonas aeruginosa, read-out: MICs
Protocol: as §1

| Compound | MIC (M. catarrhalis) | MIC [1] | MIC (H. influenzae) | MIC [2] | MIC [3] |
| --- | --- | --- | --- | --- | --- |
| COc1cc2nc(Nc3nc(O)c4c(OC)ccc(OC)c4n3)nc(C)c2cc1OC.O=C(O)C(F)(F)F [Example 99, 2-(6,7-Dimethoxy-4-methyl-quinazolin-2-ylamino)-5,8-dimethoxy-quinazolin-4-ol trifluoroacetate salt] | 2 to 64 µg/mL | 16 to 64 µg/mL | 16 to 32 µg/mL | 0.06 to 16 µg/mL | 64 µg/mL |
| COCCOc1ccc2nc(Nc3nc(C)c4cc(OC)c(OC)cc4n3)nc(O)c2c1.O=C(O)C(F)(F)F [Example 102, 2-(6,7-Dimethoxy-4-methyl-quinazolin-2-ylamino)-6-(2-methoxy-ethoxy)-quinazolin-4-ol trifluoroacetate salt] | 2 to 64 µg/mL | 16 to 64 µg/mL | 16 to 32 µg/mL | 0.06 to 16 µg/mL | 64 µg/mL |
| COc1cc2c(C)nc(Nc3nc(O)c4cccc(F)c4n3)nc2cc1O.O=C(O)C(F)(F)F [Example 104, 2-(8-Fluoro-4-hydroxy-quinazolin-2-ylamino)-6-methoxy-4-methyl-quinazolin-7-ol trifluoroacetate salt] | 2 to 64 µg/mL | 16 to 64 µg/mL | 16 to 32 µg/mL | 0.06 to 16 µg/mL | 64 µg/mL |
| Cc1nc(Nc2nc(O)c3cccc(F)c3n2)nc2cc3c(cc12)OCCO3.O=C(O)C(F)(F)F [Example 108, 8-Fluoro-2-(4-methyl-7,8-dihydro-[1,4]dioxino[2,3-g]quinazolin-2-ylamino)-quinazolin-4-ol trifluoroacetate salt] | 2 to 64 µg/mL | 16 to 64 µg/mL | 16 to 32 µg/mL | 0.06 to 16 µg/mL | 64 µg/mL |
| CCN(CC)CCOc1ccc2nc(Nc3nc(O)c4cccc(OC)c4n3)nc(C)c2c1.O=C(O)C(F)(F)F [Example 115, 2-[6-(2-Diethylamino-ethoxy)-4-methyl-quinazolin-2-ylamino]-8-methoxy-quinazolin-4-ol trifluoroacetate salt] | 2 to 64 µg/mL | 16 to 64 µg/mL | 16 to 32 µg/mL | 0.06 to 16 µg/mL | 64 µg/mL |
| COc1cc2nc(Nc3nc(O)c4cc(N)cc(C)c4n3)nc(C)c2cc1OC.O=C(O)C(F)(F)F [Example 120, 6-Amino-2-(6,7-dimethoxy-4-methyl-quinazolin-2-ylamino)-8-methyl-quinazolin-4-ol trifluoroacetate salt] | 2 to 64 µg/mL | 16 to 64 µg/mL | 16 to 32 µg/mL | 0.06 to 16 µg/mL | 64 µg/mL |
| COc1cc2nc(Nc3nc(O)c4cc(N(C)C)cc(C)c4n3)nc(C)c2cc1OC.O=C(O)C(F)(F)F [Example 121, 2-(6,7-Dimethoxy-4-methyl-quinazolin-2-ylamino)-6-dimethylamino-8-methyl-quinazolin-4-ol trifluoroacetate salt] | 2 to 64 µg/mL | 16 to 64 µg/mL | 16 to 32 µg/mL | 0.06 to 16 µg/mL | 64 µg/mL |
| CCN(CC)CCOc1ccc2nc(Nc3nc(O)c4cc(N)cc(C)c4n3)nc(C)c2c1.O=C(O)C(F)(F)F [Example 125, 6-Amino-2-[6-(2-diethylamino-ethoxy)-4-methyl-quinazolin-2-ylamino]-8-methyl-quinazolin-4-ol trifluoroacetate salt] | 2 to 64 µg/mL | 16 to 64 µg/mL | 16 to 32 µg/mL | 0.06 to 16 µg/mL | 64 µg/mL |
| COc1cccc2c(C)nc(Nc3nc(O)c4cc(OCCN5CCC(O)C5)ccc4n3)nc12.O=C(O)C(F)(F)F (stereo not drawn) [Example 138, 6-[2-(3-Hydroxy-pyrrolidin-1-yl)-ethoxy]-2-(8-methoxy-4-methyl-quinazolin-2-ylamino)-quinazolin-4-ol trifluoroacetate salt] | 2 to 64 µg/mL | 16 to 64 µg/mL | 16 to 32 µg/mL | 0.06 to 16 µg/mL | 64 µg/mL |
| COc1cc(OC)c2nc(Nc3nc(O)c4cc(OCCN(C)CCO)ccc4n3)nc(C)c2c1.O=C(O)C(F)(F)F [Example 140, 2-(6,8-Dimethoxy-4-methyl-quinazolin-2-ylamino)-6-{2-[(2-hydroxy-ethyl)-methyl-amino]-ethoxy}-quinazolin-4-ol trifluoroacetate salt] | 2 to 64 µg/mL | 16 to 64 µg/mL | 16 to 32 µg/mL | 0.06 to 16 µg/mL | 64 µg/mL |
| COc1cc2nc(Nc3nc(O)c4cc(OCCNC(CO)C(C)C)ccc4n3)nc(C)c2cc1OC.O=C(O)C(F)(F)F (stereo not drawn) [Example 142, 2-(6,7-Dimethoxy-4-methyl-quinazolin-2-ylamino)-6-[2-(1-hydroxymethyl-2-methyl-propylamino)-ethoxy]-quinazolin-4-ol Trifluoroacetate salt] | 2 to 64 µg/mL | 16 to 64 µg/mL | 16 to 32 µg/mL | 0.06 to 16 µg/mL | 64 µg/mL |
| COc1cc(OC)c2nc(Nc3nc(O)c4cc(OCCNC(C)CO)ccc4n3)nc(C)c2c1.O=C(O)C(F)(F)F (stereo not drawn) [Example 143, 2-(6,8-Dimethoxy-4-methyl-quinazolin-2-ylamino)-6-[2-(2-hydroxy-1-methyl-ethylamino)-ethoxy]-quinazolin-4-ol trifluoroacetate salt] | 2 to 64 µg/mL | 16 to 64 µg/mL | 16 to 32 µg/mL | 0.06 to 16 µg/mL | 64 µg/mL |
| CCN(CC)CCOc1ccc2nc(Nc3nc(C)c4cc(OC)cc(OC)c4n3)nc(O)c2c1.O=C(O)C(F)(F)F [Example 144, 6-(2-Diethylamino-ethoxy)-2-(6,8-dimethoxy-4-methyl-quinazolin-2-ylamino)-quinazolin-4-ol trifluoroacetate salt] | 2 to 64 µg/mL | 16 to 64 µg/mL | 16 to 32 µg/mL | 0.06 to 16 µg/mL | 64 µg/mL |
| COc1cc2nc(Nc3nc(O)c4cc(OCCN5CCCCC5)ccc4n3)nc(C)c2cc1OC.O=C(O)C(F)(F)F [Example 145, 2-(6,7-Dimethoxy-4-methyl-quinazolin-2-ylamino)-6-(2-piperidin-1-yl-ethoxy)-quinazolin-4-ol trifluoroacetate salt] | 2 to 64 µg/mL | 16 to 64 µg/mL | 16 to 32 µg/mL | 0.06 to 16 µg/mL | 64 µg/mL |
| COc1cc2nc(Nc3nc(O)c4cc(OCCN(C)C)ccc4n3)nc(C)c2cc1OC.O=C(O)C(F)(F)F [Example 146, 2-(6,7-Dimethoxy-4-methyl-quinazolin-2-ylamino)-6-(2-dimethylamino-ethoxy)-quinazolin-4-ol trifluoroacetate salt] | 2 to 64 µg/mL | 16 to 64 µg/mL | 16 to 32 µg/mL | 0.06 to 16 µg/mL | 64 µg/mL |
| COc1cc2nc(Nc3nc(O)c4cc(OCCN5CCN(C)CC5)ccc4n3)nc(C)c2cc1OC.O=C(O)C(F)(F)F [Example 147, 2-(6,7-Dimethoxy-4-methyl-quinazolin-2-ylamino)-6-[2-(4-methyl-piperazin-1-yl)-ethoxy]-quinazolin-4-ol trifluoroacetate salt] | 2 to 64 µg/mL | 16 to 64 µg/mL | 16 to 32 µg/mL | 0.06 to 16 µg/mL | 64 µg/mL |
| COc1cc2nc(Nc3nc(O)c4cc(OCCN5CCCC5)ccc4n3)nc(C)c2cc1OC.O=C(O)C(F)(F)F [Example 148, 2-(6,7-Dimethoxy-4-methyl-quinazolin-2-ylamino)-6-(2-pyrrolidin-1-yl-ethoxy)-quinazolin-4-ol trifluoroacetate salt] | 2 to 64 µg/mL | 16 to 64 µg/mL | 16 to 32 µg/mL | 0.06 to 16 µg/mL | 64 µg/mL |
| CCN(CC)CCOc1ccc2nc(Nc3nc(C)c4cc(OC)c(OC)cc4n3)nc(O)c2c1.O=C(O)C(F)(F)F [Example 149, 6-(2-Diethylamino-ethoxy)-2-(6,7-dimethoxy-4-methyl-quinazolin-2-ylamino)-quinazolin-4-ol trifluoroacetate salt] | 2 to 64 µg/mL | 16 to 64 µg/mL | 16 to 32 µg/mL | 0.06 to 16 µg/mL | 64 µg/mL |
| COc1cc2nc(Nc3nc(O)c4cc(OCCCN5CCCC5)ccc4n3)nc(C)c2cc1OC.O=C(O)C(F)(F)F [Example 151, 2-(6,7-Dimethoxy-4-methyl-quinazolin-2-ylamino)-6-(3-pyrrolidin-1-yl-propoxy)-quinazolin-4-ol trifluoroacetate salt] | 2 to 64 µg/mL | 16 to 64 µg/mL | 16 to 32 µg/mL | 0.06 to 16 µg/mL | 64 µg/mL |
| COc1cc2nc(Nc3nc(O)c4cc(OCCN5CCC(O)C5)ccc4n3)nc(C)c2cc1OC.O=C(O)C(F)(F)F (stereo not drawn) [Example 154, 2-(6,7-Dimethoxy-4-methyl-quinazolin-2-ylamino)-6-[2-(3-hydroxy-pyrrolidin-1-yl)-ethoxy]-quinazolin-4-ol trifluoroacetate salt] | 2 to 64 µg/mL | 16 to 64 µg/mL | 16 to 32 µg/mL | 0.06 to 16 µg/mL | 64 µg/mL |
| COc1cc2nc(Nc3nc(O)c4cc(OCCN5CCCC(O)C5)ccc4n3)nc(C)c2cc1OC.O=C(O)C(F)(F)F (stereo not drawn) [Example 157, 2-(6,7-Dimethoxy-4-methyl-quinazolin-2-ylamino)-6-[2-(3-hydroxy-piperidin-1-yl)-ethoxy]-quinazolin-4-ol trifluoroacetate salt] | 2 to 64 µg/mL | 16 to 64 µg/mL | 16 to 32 µg/mL | 0.06 to 16 µg/mL | 64 µg/mL |

From US20050124562A1, “Bis-quinazoline compounds for the treatment of bacterial infections” (priority 2003, published 2005)
